In paper PMC11290297 (Addiction neuroscience, 2024):

Tests used:
[1] = target: T1, kappa opioid receptor (κOR) (Homo sapiens, UniProt P41145); assay: Gi-GloSensor cAMP assay; format: cell-based
α2A-AR [2] = target: T2, α2A-AR (Homo sapiens, UniProt P08913); assay: TRUPATH BRET2 G-protein activation; format: cell-based; details: agonist; Gi1, GoA, Gz
T2 sequence (P08913 1-465): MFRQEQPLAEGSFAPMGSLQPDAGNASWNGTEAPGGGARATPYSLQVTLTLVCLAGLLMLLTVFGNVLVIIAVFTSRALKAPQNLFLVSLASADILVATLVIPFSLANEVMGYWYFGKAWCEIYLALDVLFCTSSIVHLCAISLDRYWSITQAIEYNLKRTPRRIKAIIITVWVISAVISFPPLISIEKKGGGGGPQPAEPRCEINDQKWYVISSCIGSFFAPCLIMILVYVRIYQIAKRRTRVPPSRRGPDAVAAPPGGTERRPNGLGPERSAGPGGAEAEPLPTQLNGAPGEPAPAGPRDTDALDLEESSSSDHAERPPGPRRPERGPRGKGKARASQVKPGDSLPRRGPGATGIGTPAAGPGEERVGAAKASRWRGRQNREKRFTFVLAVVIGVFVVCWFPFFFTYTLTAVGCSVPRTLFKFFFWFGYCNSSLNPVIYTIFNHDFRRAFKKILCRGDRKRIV

[3] = target: T1, kappa opioid receptor (κOR); assay: Gi-GloSensor cAMP assay; format: cell-based; remark: listed apart in the source
[4] = target: T1, kappa opioid receptor (κOR); assay: radioligand competition binding, 3H-U69593
α2A-AR [5] = target: T2, α2A-AR; assay: radioligand competition binding; details: panel labelled α2-AR
α2A-AR [6] = target: T2, α2A-AR; assay: Gi-GloSensor cAMP assay; format: cell-based; details: read-out: potency (pEC50) (converted); full agonist; printed pEC50 of 7.47

Row | SMILES | pEC50 ([1]; agonist) | pEC50 (α2A-AR [2]) | pEC50 ([1]; partial agonist) | EC50 [3] [nM] | Ki [4] [nM] | pKi (α2A-AR [5]) | EC50 (α2A-AR [6]) [nM]
1 | Cc1ccc(O)c(C)c1NC1=NCCCS1 [3-hydroxy-xylazine] | 3-hydroxy-xylazine was as efficacious, though less potent, as xylazine and salvinorin A | Xylazine, its metabolites, as well as other relevant adrenergic agonists exhibited agonist activity at α2A-AR |  |  |  |  | 
2 | Cc1cc(O)cc(C)c1NC1=NCCCS1 [4-hydroxy-xylazine] |  | Xylazine, its metabolites, as well as other relevant adrenergic agonists exhibited agonist activity at α2A-AR | 4-hydroxy-xylazine was less efficacious at κOR overall |  |  |  | 
3 | Cc1cccc(C)c1NC1=NCCCS1 [xylazine] |  |  |  | 1400 | 470 | Radioligand competitive binding assay confirms xylazine activity at κOR (A) and α2-AR (B) | 34
